According to paper PMC7059793, “Novel Chemical Scaffolds to Inhibit the Neutral Amino Acid Transporter B^0AT1 (SLC6A19), a Potential Target to Treat Metabolic Diseases” (Frontiers in Pharmacology, 2020):

Key:
[1] = biological target: T1, B^0AT1 (Homo sapiens, UniProt Q695T7); assay: Mode of inhibition: leucine uptake kinetics at three inhibitor concentrations, FLIPR, Eadie-Hofstee; assay type: cell-based; settings: CHO-BC cells
T1 construct: expressed in transfected cells
T1 sequence (Q695T7 1-634): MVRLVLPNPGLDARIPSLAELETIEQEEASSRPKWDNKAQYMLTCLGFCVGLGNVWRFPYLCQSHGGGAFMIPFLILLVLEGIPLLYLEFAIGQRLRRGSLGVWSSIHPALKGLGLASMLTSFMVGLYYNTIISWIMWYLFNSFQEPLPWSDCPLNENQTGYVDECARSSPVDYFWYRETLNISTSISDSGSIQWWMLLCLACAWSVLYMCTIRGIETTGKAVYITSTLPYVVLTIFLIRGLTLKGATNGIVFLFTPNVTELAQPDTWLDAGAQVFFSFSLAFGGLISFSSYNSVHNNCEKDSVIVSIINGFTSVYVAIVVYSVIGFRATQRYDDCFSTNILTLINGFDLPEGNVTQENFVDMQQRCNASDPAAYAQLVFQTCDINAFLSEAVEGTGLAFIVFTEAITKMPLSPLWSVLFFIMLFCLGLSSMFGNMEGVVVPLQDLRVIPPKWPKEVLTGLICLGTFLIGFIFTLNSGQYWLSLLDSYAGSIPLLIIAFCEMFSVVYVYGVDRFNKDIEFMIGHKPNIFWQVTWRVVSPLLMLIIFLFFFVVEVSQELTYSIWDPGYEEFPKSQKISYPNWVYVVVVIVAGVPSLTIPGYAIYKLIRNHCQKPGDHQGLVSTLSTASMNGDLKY
T1 sequence (Q9HBJ8 15-222 partner): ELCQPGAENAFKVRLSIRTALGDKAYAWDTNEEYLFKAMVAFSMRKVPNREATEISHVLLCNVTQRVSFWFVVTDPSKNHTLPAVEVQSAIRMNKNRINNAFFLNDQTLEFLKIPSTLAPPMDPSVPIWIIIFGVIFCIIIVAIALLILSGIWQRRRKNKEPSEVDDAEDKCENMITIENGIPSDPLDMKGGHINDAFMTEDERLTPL
Text: To understand the mode of inhibition, we determined KM-values at three different inhibitor concentrations using FLIPR assay and plotted Eadie-Hofstee transformed data ( Figure 5 ). Fully parallel lines indicate a change of […], while fully converging lines (at x = 0; y = Vmax) indicate a change of KM only with increasing concentrations of the inhibitor. […] To rationalize the mode of inhibition, we performed docking studies using a homology model of B^0AT1 based on the outside-open conformation of LeuT. […] In the homology structure the two Na^+ are shown as yellow spheres. Both, LeuT Na^+-site 1 and -site 2 are conserved in B^0AT1, but only one site is used functionally. This is most likely site 1 as it binds the α-carboxyl-group of the amino acids ([O’mara et al., 2006]). […] Many transport inhibitors are substrate analogues that are too large to fit into the occluded substrate binding cavity, thereby blocking the conformational change required for transport ([Broer, 2018]). […] Instead the compounds preferred binding to different sites in the vestibule, including the proposed Substrate-binding site 2 ([Shi et al., 2008]), which was the preferred docking site for compound E4. In the outside open conformation, the volume of the binding site increases, encompassing an orthostatic binding site ( Figure 5H , orange), occupied by E4, E18, or the substrate and an allosteric binding site ( Figure 5H , blue), which is compatible with substrate binding.
Figure 5 Mechanistic aspects of B^0AT1 inhibitors. Inhibition of B^0AT1 by compounds E4 (A), E18 (B) and CB3 (C) (n = 3, e = 3) was determined by FLIPR assay in CHO-BC cells. To determine the mode of inhibition, the kinetic properties of leucine uptake were determined in the presence of three different inhibitor concentrations. Docking poses of compounds E4 (D), E18 (E) and CB3 (F) are shown for comparison. Amino acid side-chains of the binding pocket are shown in green, cosubstrate Na^+ 1 is shown in yellow (foreground), Na^+ 2 is only partially visible in the background and may not exist in B^0AT1. […]

[2] = biological target: T2, LAT1 (Homo sapiens, UniProt Q01650); assay: Na+-independent [14C]leucine uptake in 143B cells; assay type: cell-based; settings: inhibitor at 10 μM and 50 μM
T2 construct: endogenous in cells; host or cells: 143B TK- cells (human osteosarcoma)
T2 sequence (Q01650 whole entry): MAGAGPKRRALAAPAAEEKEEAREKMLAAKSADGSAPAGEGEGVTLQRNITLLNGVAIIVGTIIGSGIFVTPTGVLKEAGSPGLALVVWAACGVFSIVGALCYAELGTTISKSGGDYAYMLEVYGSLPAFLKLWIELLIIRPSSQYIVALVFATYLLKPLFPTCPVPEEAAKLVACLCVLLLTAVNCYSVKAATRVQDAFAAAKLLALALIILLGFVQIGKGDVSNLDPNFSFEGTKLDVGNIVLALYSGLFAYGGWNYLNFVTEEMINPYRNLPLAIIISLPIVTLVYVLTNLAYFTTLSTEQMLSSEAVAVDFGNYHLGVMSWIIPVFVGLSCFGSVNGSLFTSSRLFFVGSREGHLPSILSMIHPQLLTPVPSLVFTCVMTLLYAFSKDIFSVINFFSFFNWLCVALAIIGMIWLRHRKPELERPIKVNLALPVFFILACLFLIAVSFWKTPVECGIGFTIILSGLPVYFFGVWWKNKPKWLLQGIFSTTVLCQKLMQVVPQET
T2 sequence (P08195 102-630 partner): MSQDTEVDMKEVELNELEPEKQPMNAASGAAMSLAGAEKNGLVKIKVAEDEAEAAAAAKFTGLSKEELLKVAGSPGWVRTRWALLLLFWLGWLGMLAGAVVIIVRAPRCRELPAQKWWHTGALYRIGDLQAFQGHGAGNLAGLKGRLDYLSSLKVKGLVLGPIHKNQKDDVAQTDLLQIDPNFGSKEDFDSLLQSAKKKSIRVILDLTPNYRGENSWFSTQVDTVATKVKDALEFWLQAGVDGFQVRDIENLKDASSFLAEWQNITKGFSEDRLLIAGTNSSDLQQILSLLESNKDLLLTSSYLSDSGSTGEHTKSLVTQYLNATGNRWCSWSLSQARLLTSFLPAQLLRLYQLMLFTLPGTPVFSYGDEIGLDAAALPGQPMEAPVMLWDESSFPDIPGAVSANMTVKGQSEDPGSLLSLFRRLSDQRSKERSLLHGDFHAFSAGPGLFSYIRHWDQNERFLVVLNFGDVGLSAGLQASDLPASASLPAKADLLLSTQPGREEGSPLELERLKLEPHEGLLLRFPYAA
Procedure: CHO-BC cells with passage numbers from 3 to 10 were used in radio-labelled uptake assays. Before the assay, the cells were seeded out in 35 mm dishes (Corning) and maintained for 48–72 h until reaching 80–90% confluence. To initiate transport, the culture medium was removed and the cells washed three times with HBSS + G. Subsequently, cells were incubated with HBSS + G, radiolabelled substrates (150 μM L-[U-^14C]leucine or 150 μM L-[U-^14C]isoleucine) and inhibitors as indicated in the figures or table in a 37°C water bath for 6 min. To terminate transport, cells were washed three times with ice-cold HBSS pH 7.5. For measuring sodium-independent uptake, NaCl in Hank’s buffer was replaced by NMDG-Cl. Cells were then harvested by homogenizing with 500 µl of 0.1 M HCl. An aliquot of 400 µl was used for scintillation counting and the remainder for protein quantification. To investigate inhibition of ASCT2, uptake of 100 μM [^14C]glutamine was measured in 143B cells in the absence and presence of inhibitor (at 10 μM and 50 μM). To measure inhibition of LAT1, uptake of [^14C]leucine was measured in HBSS + G in which NaCl was replaced by NMDG-Cl in 143B cells in the absence and presence of inhibitor (at 10 μM and 50 μM).
To investigate the specificity of the compounds further, we tested them in human 143B osteosarcoma cells, which we have extensively characterised previously and used for pharmacological analysis ([Broer et al., 2018]). Na^+-dependent glutamine transport in 143B cells is largely mediated by ASCT2 (SLC1A5). Na^+-independent transport of leucine, by contrast, is mediated entirely by LAT1.

SMILES | Mode of inhibition [1] | Inhibition of Na+-independent leucine uptake (LAT1) [2]
Cc1cc(C(=O)Nc2ccc(Cl)cc2C(F)(F)F)no1 [CB3] | more mixed model | failed to inhibit
Cc1cc(OCC(=O)NC(C)C)cc(C)c1Cl [Compound E4] | largely competitive mode of inhibition | failed to inhibit
COc1ccccc1Nc1nc2ccccc2s1 [Compound E18] | largely competitive mode of inhibition | failed to inhibit
